# Test results taken from patent US10188693B2, “Methods for treatment of atherosclerosis” (Stealth BioTherapeutics Corp, priority 2012, dated 2019).
# Values joined by “and” are separate entries in the source; they are usually repeats but may differ in a detail not shown here. Equal entries are not always repeated. “Also recorded” adds a separate entry of the source.
# Legend:
# Format in all cases: in vivo
# [1] = test system: Apoprotein E deficient mice; assay: Plasma lipid analysis using an autoanalyzer (TC, Trigs, PL, FC, CE by calculation); set-up: TC, plasma / FC, plasma / CE, plasma / Trigs, plasma / PL, plasma / TC / FC / CE / Trigs / PL: unit not given here; conditions: for TC: plasma total cholesterol; for Trigs: plasma triglycerides
# Source text: (§1) Apoprotein E deficient mice (Jackson Laboratories, 600 Main Street, Bar Harbor, Me.) were used in this study. The mice were male, 7-8 weeks of age, and between 18-20 g in weight. An initial total cholesterol measurement was made on 30 mice, and the mice were grouped into two groups of 15 to match the total cholesterol measurements. Both groups were fed a “western diet” (40 kcal % butterfat, 0.15% [wt/wt] cholesterol, Harlan Teklad diet TD-88137). Starting at t=0, the control group of 15 mice received vehicle only (phosphate buffered saline at pH 7.4), while the test group of 15 mice received aromatic-cationic peptide reconstituted in phosphate buffered saline. Body weights of the mice were recorded weekly, and mortality checks were performed daily.
# (§2) The aromatic-cationic peptide D-Arg-2′6′-Dmt-Lys-Phe-NH2 (sterile lyophilized powder, reconstituted in phosphate buffered saline) was tested. For the 12-week study, test mice received a single, daily dose of the peptide, subcutaneously at 1 mg/kg. Control mice received a single daily dose of vehicle.
# (§3) Experimental Protocol/Data Collection. Blood was collected every four weeks (orbital plexis) under isoflurane anesthesia (3%) and blood lipids were determined. Plasma lipid analysis was conducted for both groups at t=0, 4, […], 8, and 12 weeks. Plasma lipid analysis using an autoanalyzer included total cholesterol (TC), triglycerides (Trigs), phospholipids (PL), free cholesterol (FC), and cholesterol ester (CE, by calculation). Gel electrophoresis was used to measure levels of high-density lipoprotein cholesterol (HDL-C), low-density lipoprotein cholesterol (LDL-C), and very low-density lipoprotein cholesterol (VLDL-C).
# [2] = test system: Apoprotein E deficient mice; assay: En face analysis of atherosclerotic lesions of the thoracic aorta (Sudan IV, % of aortic surface covered by lipid); conditions: 12 weeks
# Source text: as §1, §2
# Histopathology/Histomorphometery: Following the 12 week treatment, mice were euthanized within 48 hours after the last dose by CO2 asphyxiation and the vascular tree was perfused with 5 mL of phosphate buffered saline (pH 7.4). The aorta and aortic sinus were removed for examination. Thoracic aorta were isolated, trimmed of fat, and fixed in formalin for 48-72 hours before analysis. For en face analysis, aortas were laid out and pinned on black matrix for photography, and stained with Sudan IV. Vessels were imaged for surface involvement using a Nikon computerized image analysis system and the percent of the aortic surface area covered by lipid was calculated. Two determinations were done for each image (Quan 1 and Quan 2), and the average was computed. The data were then computed by group and statistically analyzed. Following staining and morphometric analysis, total lipids were extracted from the aortas using the Bligh-Dyer method. WAKO Diagnostics kits (WAKO Diagnostics, Inc., 1600 Bellwood Road Richmond, Va. 23237-1326) were then used to evaluate total cholesterol, free cholesterol, and cholesterol ester. Cholesterol leves were quantitate nad expressed relative to protein levels. Values are expressed as μg lipid per mg protein (see e.g., FIG. 1).
# [3] = test system: Apoprotein E deficient mice; assay: Plasma lipoprotein cholesterol by gel electrophoresis (Spife; HDL-C, LDL-C, VLDL-C); conditions: for HDL-C / LDL-C / VLDL-C: plasma, Spife (electrophoresis)
# Source text: as §1, §2, §3
# [4] = week 4, individual test mouse (sample #16-30), listed as aromatic-cationic peptide
# [5] = week 8, individual test mouse (sample #16-30), listed as aromatic-cationic peptide
# [6] = week 12, AVE of 15 test animals
# [7] = week 12, individual test mouse (sample #16-30), listed as aromatic-cationic peptide
# [8] = individual mouse, 1 mg/kg subcutaneously daily, western diet, 1 mg/kg
# [9] = Week 0 (t=0, start of dosing), individual mouse of test group
# [10] = Week 0, group average of test group
# [11] = at 4, 8 and 12 week time points, versus vehicle
substance,measurement,setting,value
D-Arg-2′6′-Dmt-Lys-Phe-NH2,TC,"[1]; week 4, AVE of 15 test animals",997
same,TC,[1]; [4],799 and 924 and 976 and 1139 and 1038 and 673 and 940 and 1046 and 835 and 822 and 1026 and 1223 and 935 and 1248 and 1337
same,TC,"[1]; week 8, AVE of 15 test animals",1282
same,TC,[1]; [5],1262 and 1004 and 1505 and 1183 and 1545 and 943 and 1008 and 1473 and 1023 and 956 and 1435 and 1414 and 1147 and 1534 and 1797
same,TC,[1]; [6],1003
same,TC,[1]; [7],898 and 540 and 884 and 937 and 1420 and 719 and 674 and 745 and 990 and 999 and 1379 and 1255 and 558 and 1317 and 1736
same,Trigs,"[1]; week 4, AVE of 15 test animals",58
same,Trigs,[1]; [4],18 (2×) and 39 and 28 and 85 and 59 (2×) and 46 and 108 and 33 and 44 (2×) and 67 and 80 and 144
same,Trigs,"[1]; week 8, AVE of 15 test animals",57
same,Trigs,[1]; [5],34 (3×) and 31 (2×) and 51 (2×) and 48 and 53 and 43 and 75 and 63 and 39 and 67 and 195
same,Trigs,[1]; [6],55
same,Trigs,[1]; [7],27 and 49 and 10 and 37 (2×) and 18 and 39 (2×) and 13 and 25 and 74 and 89 and 97 and 112 and 158
same,Ave (average % of the surface of the aortas showing lesions),"[2]; group average of 15 test mice, 1 mg/kg subcutaneously daily",5.328%
same,Ave. % of Lesion,"[2]; individual mouse, average of Quan 1 and Quan 2, 1 mg/kg subcutaneously daily, 1 mg/kg",2.615% and 0.892% and 9.027% and 3.019% and 7.009% and 4.833% and 1.996% and 1.205% and 9.948% and 2.763% and 6.814% and 4.734% and 0.834% and 11.239% and 12.990%
same,Quan 1 (first determination of % of the aortic surface covered by lipid),[2]; [8],2.562% and 0.914% and 8.769% and 2.832% and 7.137% and 5.198% and 2.128% and 1.388% and 10.000% and 2.990% and 7.091% and 4.700% and 0.775% and 11.589% and 13.857%
same,Quan 2 (second determination of % of the aortic surface covered by lipid),[2]; [8],2.667% and 0.870% and 9.284% and 3.205% and 6.881% and 4.468% and 1.863% and 1.021% and 9.895% and 2.536% and 6.536% and 4.768% and 0.892% and 10.888% and 12.122%
same,"atherosclerotic lesions in the aorta (% lesion area), in words","[2]; treated versus vehicle, listed as aromatic-cationic peptide",reduces; also recorded: lower
same,"HDL-C, plasma",[3]; [9],19 mg/dL and 34 mg/dL and 32 mg/dL and 37 mg/dL and 35 mg/dL and 21 mg/dL and 38 mg/dL and 41 mg/dL and 6 mg/dL and 31 mg/dL and 26 mg/dL and 39 mg/dL and 22 mg/dL and 29 mg/dL and 8 mg/dL
same,"LDL-C, plasma",[3]; [9],258 mg/dL and 260 mg/dL and 307 mg/dL and 245 mg/dL and 268 mg/dL and 295 mg/dL and 304 mg/dL and 474 mg/dL and 287 mg/dL and 352 mg/dL and 380 mg/dL and 481 mg/dL and 410 mg/dL and 432 mg/dL and 773 mg/dL
same,"VLDL-C, plasma",[3]; [9],25 mg/dL (2×) and 23 mg/dL and 37 mg/dL and 20 mg/dL (2×) and 19 mg/dL and 27 mg/dL and 36 mg/dL and 15 mg/dL and 26 mg/dL and 31 mg/dL and 24 mg/dL and 28 mg/dL and 29 mg/dL
same,"HDL-C, plasma, AVE",[3]; [10],28 mg/dL
same,"LDL-C, plasma, AVE",[3]; [10],368 mg/dL
same,"VLDL-C, plasma, AVE",[3]; [10],26 mg/dL
same,"plasma LDL-C, in words",[3]; [11],reduces
same,"plasma VLDL-C, in words",[3]; [11],reduces
same,HDL-C,"[3]; week 4, AVE of 15 test animals",25 mg/dL
same,LDL-C,"[3]; week 4, AVE of 15 test animals",940 mg/dL
same,VLDL-C,"[3]; week 4, AVE of 15 test animals",33 mg/dL
same,HDL-C,[3]; [4],18 mg/dL and 20 mg/dL (3×) and 0 mg/dL and 13 mg/dL and 7 mg/dL and 23 mg/dL and 32 mg/dL (3×) and 15 mg/dL and 45 mg/dL and 44 mg/dL and 49 mg/dL
same,LDL-C,[3]; [4],745 mg/dL and 866 mg/dL and 918 mg/dL and 1120 mg/dL and 982 mg/dL and 648 mg/dL and 893 mg/dL and 975 mg/dL and 770 mg/dL and 766 mg/dL and 966 mg/dL and 1147 mg/dL and 874 mg/dL and 1171 mg/dL and 1254 mg/dL
same,VLDL-C,[3]; [4],35 mg/dL (2×) and 37 mg/dL (2×) and 19 mg/dL and 44 mg/dL (2×) and 18 mg/dL and 23 mg/dL and 39 mg/dL and 41 mg/dL and 28 mg/dL and 31 mg/dL and 30 mg/dL and 32 mg/dL
same,HDL-C,"[3]; week 8, AVE of 15 test animals",32 mg/dL
same,LDL-C,"[3]; week 8, AVE of 15 test animals",1166 mg/dL
same,VLDL-C,"[3]; week 8, AVE of 15 test animals",84 mg/dL
same,HDL-C,[3]; [5],42 mg/dL and 34 mg/dL and 27 mg/dL and 33 mg/dL and 19 mg/dL (2×) and 8 mg/dL and 45 mg/dL and 16 mg/dL and 32 mg/dL and 41 mg/dL (2×) and 25 mg/dL and 43 mg/dL and 57 mg/dL
same,LDL-C,[3]; [5],1119 mg/dL and 897 mg/dL and 1392 mg/dL and 1071 mg/dL and 1415 mg/dL and 901 mg/dL and 875 mg/dL and 1378 mg/dL and 922 mg/dL and 856 mg/dL and 1317 mg/dL and 1320 mg/dL and 1025 mg/dL and 1382 mg/dL and 1621 mg/dL
same,VLDL-C,[3]; [5],101 mg/dL and 73 mg/dL and 86 mg/dL and 79 mg/dL (2×) and 112 mg/dL and 34 mg/dL and 88 mg/dL and 69 mg/dL and 59 mg/dL and 93 mg/dL and 74 mg/dL and 80 mg/dL and 109 mg/dL and 119 mg/dL
same,HDL-C,[3]; [6],21 mg/dL
same,LDL-C,[3]; [6],939 mg/dL
same,VLDL-C,[3]; [6],44 mg/dL
same,HDL-C,[3]; [7],38 mg/dL and 20 mg/dL (2×) and 10 mg/dL and 41 mg/dL and 21 mg/dL and 5 mg/dL and 31 mg/dL (2×) and 2 mg/dL (2×) and 40 mg/dL and 28 mg/dL and 1 mg/dL and 23 mg/dL
same,LDL-C,[3]; [7],821 mg/dL and 485 mg/dL and 854 mg/dL and 852 mg/dL and 1328 mg/dL and 693 mg/dL and 611 mg/dL and 692 mg/dL and 962 mg/dL and 896 mg/dL and 1275 mg/dL and 1218 mg/dL and 505 mg/dL and 1203 mg/dL and 1688 mg/dL
same,VLDL-C,[3]; [7],39 mg/dL and 35 mg/dL and 21 mg/dL (2×) and 43 mg/dL and 71 mg/dL and 32 mg/dL and 33 mg/dL and 26 mg/dL and 63 mg/dL and 76 mg/dL and 36 mg/dL and 30 mg/dL and 83 mg/dL and 46 mg/dL
